Measured values as given in PMC9558053, “Development of a novel high-throughput screen for the identification of new inhibitors of protein S-acylation” (The Journal of Biological Chemistry, 2022).

Target: T1, human zDHHC7 (Homo sapiens, UniProt Q9NXF8)
T1 construct: expressed in transfected cells; host or cells: HEK293T
T1 sequence (Q9NXF8 1-308): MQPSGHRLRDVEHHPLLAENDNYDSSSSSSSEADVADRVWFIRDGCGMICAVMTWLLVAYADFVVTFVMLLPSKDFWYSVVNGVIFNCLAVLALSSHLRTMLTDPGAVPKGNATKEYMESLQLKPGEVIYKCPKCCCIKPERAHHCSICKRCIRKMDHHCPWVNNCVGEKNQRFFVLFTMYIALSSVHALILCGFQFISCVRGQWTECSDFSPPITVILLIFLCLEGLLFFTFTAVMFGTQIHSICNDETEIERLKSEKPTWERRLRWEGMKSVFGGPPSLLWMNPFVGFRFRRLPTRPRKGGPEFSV
Experiment: GFP-SNAP25b S-acylation in HEK293T cells co-expressing zDHHC7
Assay type: cell-based
Details: in cellulo HEK293T, compound 25 μM; for inhibition at 25 µM: HEK-293T, read-out: SNAP25 S-acylation inhibition (%), zDHHC7
Protocol: We next investigated whether the identified compounds were effective at inhibiting zDHHC enzyme isoforms other than zDHHC2 (Fig. 6 and Table 1). […] We therefore treated cells coexpressing GFP-SNAP25 and each of these zDHHC enzymes with 25 μM of TTZ-1 and TTZ-2 and studied the subsequent effect on SNAP25 S-acylation. […] Importantly, the level of enzyme expression was unaffected by the compounds. […] As any major differences in the expression levels of the different enzymes could in theory contribute to the apparent differential effects of TTZ-1 and TTZ-2, we directly compared the expression of zDHHC2, zDHHC3, zDHHC7, zDHHC15, and zDHHC17 when transfected in HEK293T cells together with GFP-SNAP25.
Figure 6 Activity of TTZ-1 and TTZ-2 against SNAP25 S-acylation by human zDHHC2, zDHHC3, zDHHC7, zDHHC15, and zDHHC17 expressed in mammalian cells.A–E, HEK293T cells were transfected with a plasmid encoding GFP-SNAP25b together with either a control plasmid pEF-BOS-HA (pEF) or a plasmid encoding either HA-tagged human zDHHC2 (zD2) (A), zDHHC3 (zD3) (B), zDHHC7 (zD7) (C), zDHHC15 (zD15) (D), or zDHHC17 (zD17) (E) for 24 h. Cells were then preincubated for 4 h with TTZ-1 or TTZ-2 (25 μM final) or DMSO control before metabolic labeling with 100 μM C16:0-azide for 4 h. Cells were lysed, and proteins having incorporated C16:0-azide were labeled by click chemistry with an alkyne-IR800 dye. Protein samples were then resolved by SDS-PAGE and transferred to nitrocellulose membranes that were first stained with an infrared-680 total protein stain. Membranes were then destained and probed with an anti-HA antibody (IR680), followed by an anti-GFP antibody (IR680). Representative images are shown, and panels are presented in the following order (from top to bottom): click chemistry signal (Click [IR800]), GFP and HA immunoblots (IR680), and Total Protein Stain (IR680). Positions of the molecular mass markers (in kilodalton) are indicated on the right side of the membranes. Three independent experiments were performed either in duplicate or in triplicate, and the quantification data were gathered on the graphs below each set of membranes. […] Filled circles represent individual samples. […] Filled circles represent individual samples. Statistical analysis (ANOVA) was performed to test whether there was a significant difference between the zDHHC expression of cells treated with DMSO as a control versus similar samples treated with TTZ-1 or TTZ-2 (∗∗p < 0.01). F, samples from A, B, C, D, and E (expressing GFP-SNAP25 and HA-tagged zDHHC enzymes and treated with DMSO) were loaded on an SDS-PAGE gel and transferred to a nitrocellulose membrane. The membrane was probed for the expression of the HA-tagged enzymes with an anti-HA antibody (IR680). […]

| Structure (SMILES) | inhibition at 25 µM [%] | SNAP25 S-acylation inhibition (%), zDHHC7 |
| --- | --- | --- |
| O=C(Nc1cccc2c1OC(c1nnn[nH]1)CN2)c1ccc(OCCCCc2ccccc2)cc1 (stereo not shown) [TTZ-2, N-(2-(1H-Tetrazol-5-yl)-3,4-dihydro-2H-benzo[b][1,4]oxazin-8-yl)-4-(4-phenylbutoxy)benzamide] | 13 ± 7 | no significant effect |
| CCCCCCCOc1ccc(C(=O)Nc2cccc3c2OC(c2nnn[nH]2)CN3)cc1 (stereo not shown) [TTZ-1, N-(2-(1H-Tetrazol-5-yl)-3,4-dihydro-2H-benzo[b][1,4]oxazin-8-yl)-4-(heptyloxy)benzamide] | 14 ± 7 | no significant effect |
